# Experimental data published in US9370589B2, “Switching fluorescent nanoparticle probe and fluorescent particle imaging method using same” (SHIMADZU CORPORATION, priority 2010, dated 2016).
# Columns and labels:
# [1] = Fluorescence intensity before and after change in external environment (addition of 5 wt % SDS); details: lactosome containing 20 mol % of dye (IC7-2: 15 mol %); for Ratio of fluorescence intensity (A/B): 5 wt % SDS versus PBS; for Fluorescence maximum: addition of 5 wt % SDS, polymer 1/15 mg/mL; for Fluorescence intensity (A): after addition of 5 wt % SDS; for Fluorescence intensity (PBS)(B): in PBS, at the SDS fluorescence maximum wavelength
# Text: (§1) Requirements for recovery of fluorescence intensity under in vivo conditions were studied.
# (§2) It is to be noted that specific composition of the phosphate buffered saline (PBS) is as follows: 29 g of Na2HPO4.12H2O, 2.96 g of NaH2PO4.2H2O, and 8.7 g of NaCl per 1 liter of ultrapure water.
# albumin (BSA) = albumin (BSA) (Bos taurus, UniProt P02769); assay: Fluorescence intensity before and after change in external environment (addition of 5 wt % BSA); details: lactosome containing 20 mol % of dye (IC7-2: 15 mol %); for Ratio of fluorescence intensity (A/B): 5 wt % BSA versus PBS; for Fluorescence maximum: addition of 5 wt % BSA, polymer 1/15 mg/mL; for Fluorescence intensity (A): after addition of 5 wt % BSA; for Fluorescence intensity (PBS)(B): in PBS, at the BSA fluorescence maximum wavelength
# Text: as §1, §2
# [2] = Fluorescence intensity before and after change in external environment (addition of plasma); details: for Fluorescence maximum: lactosome (PSar-PLLA) containing 20 mol % of dye (IC7-2: 15 mol %), addition of plasma, polymer 1/15 mg/mL; for Fluorescence intensity (A) / Fluorescence intensity (PBS)(B) / Ratio of fluorescence intensity (A/B): lactosome containing 20 mol % of dye (IC7-2: 15 mol %); for Fluorescence intensity (A): after addition of plasma; for Fluorescence intensity (PBS)(B): in PBS, at the plasma fluorescence maximum wavelength; for Ratio of fluorescence intensity (A/B): plasma versus PBS
# Method: Requirements for recovery of fluorescence intensity under in vivo conditions were studied. A water dispersion of the lactosome encapsulating 20 mol % of IC7-1 in a carrier agent PSar-PLLA (1 mg/mL) and phosphate buffered saline (PBS), plasma (collected from a male ddY), 5 wt % albumin (BSA), or 5 wt % SDS were mixed 1:1 (volume ratio), respectively, and the mixture was allowed to stand at room temperature for 30 minutes under lightproof conditions, and then diluted with PBS so that the concentration of the amphiphilic polymer was 1/15 mg/mL to measure a fluorescence spectrum (FIG. 3(a)).
# [3] = Dependence of fluorescence intensity of fluorescent dye-encapsulating lactosome on fluorescent dye content; type: physicochemical; details: for intensity of fluorescence by adding SDS, BSA, or plasma: lactosome with varied dye content; for fluorescent dye content at which the intensity of fluorescence in PBS was maximized: polymer 1/15 mg/mL
# Method: Lactosomes encapsulating, as a fluorescent dye, IC7-1, IC7-2, IR820, IR783, or IR806 were prepared by changing the fluorescent dye content (1 mg/mL), and were then mixed with PBS, 5 wt % SDS, 5 wt % BSA, or plasma 1:1 (volume ratio), and the mixture was allowed to stand at room temperature for 30 minutes under lightproof conditions, and then diluted with PBS so that the concentration of the amphiphilic polymer was 1/15 mg/mL to measure the intensity of fluorescence using Fluorolog-3 (HORIBA Jobin Yvon Inc.) (FIG. 6).
# [4] = Absorption and fluorescence spectra of fluorescent dye-encapsulating lactosomes in ultrapure water; type: physicochemical; details: polymer 1 mg/mL; for absorption maximum / Fluorescence maximum: lactosome encapsulating 1 mol % of dye
# Method: Among the lactosomes encapsulating the fluorescent dye IC7-1 (IC7-1/Lactosomes) obtained in Example 1-1, the freeze-dried products of the lactosomes each encapsulating 1 mol %, 5 mol %, 10 mol % and 20 mol % of the fluorescent dye were subjected to measurement of absorption spectra and fluorescence spectra in the following manner.
# The measurement of absorption spectra was performed to confirm that each of these lactosomes encapsulated the fluorescent dye according to their respective fluorescent dye blend ratios. Further, the measurement of fluorescence intensity of the fluorescent dye-encapsulating lactosomes was performed. The measurement of absorption spectra was performed using an ultraviolet-visible spectrophotometer (UVmini-1240, manufactured by SHIMADZU CORPORATION). The measurement of fluorescence spectra was performed at an excitation wavelength of 785 nm in the range of 700 to 900 nm using a fluorescence spectrophotometer (RF-5300PC, manufactured by SHIMADZU CORPORATION).
# Each of the fluorescent dye-encapsulating lactosomes was dispersed in ultrapure water so that the concentration of the amphiphilic polymer was 1 mg/mL to measure absorption and fluorescence spectra (FIG. 1). The lactosome encapsulating 1 mol % of IC7-1 had adsorption maximum at 831 nm and fluorescence maximum at 836 nm. Although the intensity of absorbance increased as the fluorescent dye content increased, the intensity of fluorescence was highest when the fluorescent dye content was 1 mol %, and was reduced to about 1/120 when the fluorescent dye content was 20 mol % as compared to when the fluorescent dye content was 1 mol % (FIGS. 1(a) and 1(b)). The lactosome encapsulating 1 mol % of IC7-2 had absorption maximum at 831 nm and fluorescence maximum at 833 nm. […] Also when IC7-2 was contained, quenching of fluorescence was observed. The intensity of fluorescence was reduced to about ⅛ when the IC7-2 content was 20 mol % as compared to when the IC7-2 content was 1 mol % (FIGS. 1(c) and 1(d)).
# Among the lactosomes encapsulating the fluorescent dye IC7-1 (IC7-1/Lactosomes) obtained in Example 1-1, the lactosomes each encapsulating 0.5 mol % (for comparison), 1 mol %, 2 mol %, 4 mol %, 8 mol %. 12 mol %, 16 mol %, or 20 mol % of the fluorescent dye IC7-1 (IC7-1/Lactosomes) were dispersed in ultrapure water so that the concentration of the amphiphilic polymer was 1 mg/mL to measure the maximum value of fluorescence at an excitation wavelength of 785 nm (FIG. 2(a)).
# Chain of albumin (BSA) (P02769 25-607): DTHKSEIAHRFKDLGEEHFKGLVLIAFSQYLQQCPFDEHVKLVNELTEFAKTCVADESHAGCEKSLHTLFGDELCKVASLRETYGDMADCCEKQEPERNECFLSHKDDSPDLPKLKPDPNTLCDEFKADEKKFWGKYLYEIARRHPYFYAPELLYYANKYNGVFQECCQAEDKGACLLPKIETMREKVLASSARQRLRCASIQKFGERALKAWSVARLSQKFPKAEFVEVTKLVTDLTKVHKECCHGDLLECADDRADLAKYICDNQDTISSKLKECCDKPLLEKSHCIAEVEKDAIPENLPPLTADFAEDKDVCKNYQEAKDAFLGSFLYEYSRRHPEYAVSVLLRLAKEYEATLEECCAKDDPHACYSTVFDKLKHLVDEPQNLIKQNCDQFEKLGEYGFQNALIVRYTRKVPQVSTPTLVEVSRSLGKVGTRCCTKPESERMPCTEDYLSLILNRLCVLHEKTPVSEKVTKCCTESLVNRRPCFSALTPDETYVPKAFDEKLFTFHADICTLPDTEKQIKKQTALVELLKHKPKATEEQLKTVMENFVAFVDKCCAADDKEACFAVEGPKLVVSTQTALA
Compound,Ratio of fluorescence intensity (A/B) [1],Fluorescence maximum [1] [nm],Fluorescence intensity (A) [1],Fluorescence intensity (PBS)(B) [1],Ratio of fluorescence intensity (A/B) (albumin (BSA)),Fluorescence maximum (albumin (BSA)) [nm],Fluorescence intensity (A) (albumin (BSA)),Fluorescence intensity (PBS)(B) (albumin (BSA)),Fluorescence maximum [2] [nm],Fluorescence intensity (A) [2],Fluorescence intensity (PBS)(B) [2],Ratio of fluorescence intensity (A/B) [2],"intensity of fluorescence by adding SDS, BSA, or plasma [3]",fluorescent dye content at which the intensity of fluorescence in PBS was maximized ([3]; lactosome) [mol %],absorption maximum [4] [nm],Fluorescence maximum ([4]; excitation 785 nm) [nm],intensity of fluorescence at 20 mol % dye content as compared to 1 mol % (reduced to) ([4]; lactosome),"increase of encapsulated fluorescent dye amount by which fluorescence intensity per certain amount of dye is reduced to ½ ([3]; lactosome, amphiphilic polymer concentration 1/15 mg/mL) [mol %]","fluorescent dye content at which the intensity of fluorescence was highest ([4]; lactosome, excitation 785 nm) [mol %]","increase of fluorescent dye content by which fluorescence intensity per 1 μM dye is reduced to ½ ([4]; lactosome, until content reached 8 mol %) [mol %]"
"CC1(C)C(/C=C/C=C/C=C/C=C2\N(CCCCS(=O)(=O)O)c3ccc4ccccc4c3C2(C)C)=[N+](CCCCS(=O)(=O)[O-])c2ccc3ccccc3c21 [ICG, indocyanine green]",71.9,821,382900,5327,33.4,802,148650,4454,824,342590,5212,65.7,–,–,–,–,–,–,–,–
O=C(O)c1ccccc1C1=c2cc3c4c(c2Oc2c1cc1c5c2CCCN5CCC1)CCC[N+]=4CCC3 [Rhodamine 101],1.5,598,249130,162110,1.1,600,171710,163500,601,154280,163410,0.9,–,–,–,–,–,–,–,–
CC1(C)C(/C=C/C2=C(Cl)C(=C/C=C3/C=CN(CCO)c4ccccc43)/CCC2)=[N+](CCCCCC(=O)O)c2ccc3ccccc3c21.[I-] [IC7-2],7.9,916,124942,15816,13.1,903,185345,14147,901,241880,14224,17.0,increased with dependence on fluorescent dye content,2.5,831,833,about ⅛,–,–,–
N#CC1=c2cc3c4c(c2Oc2c1cc1c5c2CCCN5CCC1)CCC[N+]=4CCC3 [Rhodamine 800],1.9,702,152580,80647,1.7,699,139250,82260,699,138170,82260,1.7,–,–,–,–,–,–,–,–
CC1(C)C(/C=C/C2=C(Cl)C(=C/C=C3\N(CCCCCC(=O)O)c4ccc5ccccc5c4C3(C)C)/CCC2)=[N+](CCO)c2ccc3ccccc3c21.[I-] [IC7-1],204.5,852,141929,694,156.3,837,92384,591,844,199746,696,287.0,increased with dependence on fluorescent dye content,1,831,836,about 1/120,1.12,1,0.78
